Measured values reported in patent US20040028646A1, “Particle formation” (priority 2002, published 2004).

Test system: lysozyme
Experiment: Retention of original lysozyme activity after Nektar SCF processing
Type: biochemical
Conditions: after Nektar SCF processing at 0° C., 100 bar

Substance	Retained original (pre-Nektar SCF) activity
Experiment 8.1: unconjugated lysozyme subjected to Nektar SCF processing from 20 mg/ml aqueous solution	105%
Experiment 8.2: conjugate of the protein lysozyme with linear mPEG of 5 kDaltons	108%
